Laboratory results: patent publication US7553642B2, “Branched neutral amino acid transporters acting as single molecule” (Human Cell Systems, Inc., priority 2003, dated 2009)
“Also recorded” adds a separate entry of the source. Like-named read-outs stand apart in the source and are kept apart here.

Legend:
Format in all cases: cell-based
[1] = biological target: T1, human LAT3 (Homo sapiens, UniProt O75387); experiment: Inhibition of 14C-leucine uptake by Xenopus oocytes injected with human LAT3 cRNA
T1 construct: An expression plasmid vector pSPORT1 containing cDNA of human LAT3 was cleaved by a restriction enzyme NotI, and cRNA; expressed in transfected cells; host or cells: Xenopus laevis oocytes injected with cRNA
T1 sequence (O75387 1-559): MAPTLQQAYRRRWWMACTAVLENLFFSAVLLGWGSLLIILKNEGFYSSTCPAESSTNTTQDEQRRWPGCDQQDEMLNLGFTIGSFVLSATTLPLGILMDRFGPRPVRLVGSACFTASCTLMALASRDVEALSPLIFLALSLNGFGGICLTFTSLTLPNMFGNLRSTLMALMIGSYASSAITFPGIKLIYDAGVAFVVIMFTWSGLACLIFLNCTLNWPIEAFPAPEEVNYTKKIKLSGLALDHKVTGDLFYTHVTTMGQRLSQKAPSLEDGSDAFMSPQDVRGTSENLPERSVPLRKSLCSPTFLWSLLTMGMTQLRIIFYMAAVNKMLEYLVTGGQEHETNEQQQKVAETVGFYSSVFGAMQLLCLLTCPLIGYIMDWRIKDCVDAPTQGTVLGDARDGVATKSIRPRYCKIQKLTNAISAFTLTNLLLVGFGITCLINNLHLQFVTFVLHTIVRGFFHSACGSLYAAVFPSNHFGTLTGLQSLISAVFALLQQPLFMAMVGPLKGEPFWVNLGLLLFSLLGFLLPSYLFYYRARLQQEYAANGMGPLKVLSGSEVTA

[2] = biological target: T2, mouse LAT4 (Mus musculus, UniProt Q8CGA3, K402E/P237S); experiment: Inhibition of 14C-leucine uptake by oocytes injected with mouse LAT4 cRNA; details: 14C-leucine 100 μM, 10 mM unlabeled compound, Na+-free uptake solution, Xenopus oocytes
T2 construct: An expression plasmid vector pcDNA 3.1(+) containing cDNA of mouse LAT4 was cleaved by a restriction enzyme XbaI; expressed in transfected cells; host or cells: Xenopus laevis oocytes injected with cRNA (from pcDNA3.1(+), IMAGE clone 2235970)
Protocol: In this regard, uptake of ^14C-leucine (100 μM) into the oocytes was measured in the presence or the absence of 10 mM of various compounds (unlabeled) in the Na^+-free uptake solution.

[3] = biological target: T1, human LAT3; experiment: Uptake of radiolabeled amino acids by Xenopus oocytes injected with human LAT3 cRNA; details: 14C-labeled substrate in place of 14C-leucine, Na+-free uptake solution, 10 minutes
Protocol: The substrate uptake by the injected oocytes using leucine as a substrate was carried out according to the method described by Kanai et al. (Kanai and Hediger, Nature, Vol. 360, 467-471 (1992)), as follows. The oocytes was cultured for 30 minutes in the Na^+-free uptake solution (100 mM of choline chloride, 2 mM of potassium chloride, 1.8 mM of calcium chloride, 1 mM of magnesium chloride, 5 mM of HEPES, pH 7.4) using ^14C-leucine (100 μM) as a substrate, and uptake rate of the substrate was measured by counting radioactivity in the cell.
The oocytes was injected with 25 ng of human LAT3 gene cRNA to be expressed thereby, and cultured for 3 days.
The experiment of the leucine uptake was carried out as follows according to the above described method in Example 1 (1). That is, the oocytes injected with the cRNA of the human LAT3 gene or water as a control were cultured for 10 minutes in Na^+-free uptake solution containing ^14C-leucine (100 μM) (refer to Example 1 (1)), and measured uptake of radioactivity into the cells.
The leucine uptake was conducted at the leucin concentrations of 1, 3, 10, 30, 60, 100, 200, 400, 1000, 2000 and 3000 μM using the oocytes injected with cRNA of the human LAT3 gene according to the above-described method in Example 3 (1). […] In addition, it was clarified that the leucine transport mediated by LAT3 is composed of high affinity component and low affinity component (FIG. 6, inserted figure).
An uptake experiment of various amino acids and amino acid analogs was carried out using the oocytes injected with cRNA of the human LAT3 gene according to the above-described method in Example 3 (1), provided that various radiolabeled amino acids were utilized in place of the ^14C-leucine.

[4] = biological target: T2, mouse LAT4; experiment: Uptake of radiolabeled amino acids by Xenopus oocytes injected with mouse LAT4 cRNA; details: 14C-labeled substrate in place of 14C-leucine
Protocol: The oocytes was injected with 25 ng of cRNA of the mouse LAT4 gene to be expressed thereby, and cultured for 3 days.
An experiment of leucine uptake was carried out as follows according to the above-described method in Example 3 (1). That is, the oocytes injected with cRNA of the mouse LAT4 gene or water as a control were cultured for 10 minutes in the Na^+-free uptake solution containing […] (100 μM) (refer to Example 3 (1)), and measured the uptake of radioactivity into the cells.
The leucine uptake was conducted at the leucin concentrations of 0.01, 0.03, 0.1, 0.3, 1, 3 and 10 mM, using the oocytes injected with cRNA of the mouse LAT4 gene according to the above-described method in Example 3 (1). […] In addition, it was clarified that the leucine transport mediated by LAT4 is composed of a high affinity component and a low affinity component, just like the leucin uptake mediated by LAT3.
An uptake experiment of various amino acids and amino acid analogs was carried out using the oocytes injected with cRNA of the mouse LAT4 gene according to the above-described method in Example 3 (1). In this regard, in place of ^14C-leucine, various radiolabeled amino acids were utilized.

[5] = tested on: LAT1; experiment: Influence of N-ethylmaleimide on leucine uptake mediated by LAT1; details: 5 mM; 14C-L-leucine 100 μM, 10 minutes
[6] = biological target: T1, human LAT3; experiment: Influence of N-ethylmaleimide on leucine uptake by oocytes expressing human LAT3; details: pretreatment with 5 mM for 15 minutes; 14C-L-leucine 100 μM, 10 minutes
Protocol: Each of the oocytes injected with cRNA of the human LAT3 gene, injected with cRNA of the human LAT3 gene and cRNA of 4F2hc gene, or injected with water as a control was cultured for 10 minutes in the Na^+-free uptake solution containing ^14C-L-leucine (100 μM) (refer to Example 3 (2)), and uptake of radioactivity into the oocytes was measured according to the method described in Example 3 (1). In this regard, influences of pretreatment with 5 mM of N-ethylmaleimide for 15 minutes, and the presence or absence of 5 mM of N-ethylmaleimide in the uptake solution on the ^14C-leucine uptake were investigated.

[7] = 14C-leucine 100 μM, 10 mM unlabeled compound, Na+-free uptake solution, 10 minutes, Xenopus oocytes

T2 sequence (Q8CGA3 whole entry P237S/K402E): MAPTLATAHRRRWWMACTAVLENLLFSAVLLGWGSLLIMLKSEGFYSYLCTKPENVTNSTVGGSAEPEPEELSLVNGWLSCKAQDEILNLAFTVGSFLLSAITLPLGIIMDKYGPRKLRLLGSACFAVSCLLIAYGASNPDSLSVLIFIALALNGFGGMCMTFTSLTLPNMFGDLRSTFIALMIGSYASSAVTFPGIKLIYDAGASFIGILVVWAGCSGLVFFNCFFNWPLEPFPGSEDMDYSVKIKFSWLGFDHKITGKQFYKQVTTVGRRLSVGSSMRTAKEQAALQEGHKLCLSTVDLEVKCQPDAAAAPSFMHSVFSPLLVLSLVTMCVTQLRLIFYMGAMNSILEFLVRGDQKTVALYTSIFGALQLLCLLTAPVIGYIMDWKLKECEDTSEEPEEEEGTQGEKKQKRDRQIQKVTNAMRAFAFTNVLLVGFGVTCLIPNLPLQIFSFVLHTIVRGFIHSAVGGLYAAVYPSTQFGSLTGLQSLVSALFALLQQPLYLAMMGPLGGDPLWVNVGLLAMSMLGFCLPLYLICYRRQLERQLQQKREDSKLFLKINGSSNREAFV

| Structure (SMILES) | inhibitory effect on the LAT3 mediated 14C-leucine uptake [1, 7] | inhibitory effect on the LAT4 mediated 14C-leucine uptake [2] | also measured |
| --- | --- | --- | --- |
| CC(C)CC(C)N (centres unmarked) [1,3-dimethyl-n-butylamine] | significant inhibitory activity | – | – |
| NC1(C(=O)O)CC2CCC1C2 (centres unmarked) [BCH, 2-aminobicyclo-(2,2,1)-heptane-2-carboxylic acid] | strong inhibition | strong inhibition | – |
| N[C@H](Cc1c[nH]cn1)C(=O)O [D-histidine] | – | relatively strong inhibitory effect | – |
| CC(C)C[C@@H](N)C(=O)O [D-leucine] | relatively strong inhibitory effect | relatively strong inhibitory effect | uptake of radiolabeled substrate into oocytes expressing human LAT3 [3]: significant uptake; uptake of radiolabeled substrate into oocytes expressing mouse LAT4 [4]: significant uptake |
| CSCC[C@@H](N)C(=O)O [D-methionine] | – | relatively strong inhibitory effect | – |
| CC(C)CCN [Isopentylamine, isopentylamine] | significant inhibitory activity | – | – |
| CC[C@H](C)[C@H](N)C(=O)O [L-isoleucine] | strong cis-inhibitory effect | strong cis-inhibitory effect | uptake of radiolabeled substrate into oocytes expressing human LAT3 [3]: a large amount of uptake; uptake of radiolabeled substrate into oocytes expressing mouse LAT4 [4]: a large amount of uptake |
| CSCC[C@H](N)C(=O)O [L-methionine] | – | strong cis-inhibitory effect | uptake of radiolabeled substrate into oocytes expressing human LAT3 [3]: small but significant uptake; inhibitory effect on the LAT3 mediated 14C-leucine uptake [1]: strong cis-inhibitory effect; uptake of radiolabeled substrate into oocytes expressing mouse LAT4 [4]: a large amount of uptake |
| N[C@@H](Cc1ccccc1)C(=O)O [L-phenylalanine] | strong cis-inhibitory effect | strong cis-inhibitory effect | uptake of radiolabeled substrate into oocytes expressing human LAT3 [3]: a large amount of uptake; uptake of radiolabeled substrate into oocytes expressing mouse LAT4 [4]: a large amount of uptake |
| O=C(O)[C@@H]1CCCN1 [L-proline] | did not affect | did not affect | uptake of radiolabeled substrate into oocytes expressing human LAT3 [3]: small but significant uptake |
| CC(C)[C@H](N)C(=O)O [L-valine] | strong cis-inhibitory effect | strong cis-inhibitory effect | uptake of radiolabeled substrate into oocytes expressing human LAT3 [3]: a large amount of uptake; uptake of radiolabeled substrate into oocytes expressing mouse LAT4 [4]: a large amount of uptake |
| CC(=O)N[C@@H](CC(C)C)C(=O)O [N-acetyl-leucine, N-acetyl-L-leucine] | significant inhibitory activity | – | – |
| CCN1C(=O)C=CC1=O [N-ethylmaleimide] | – | – | effect on 14C-L-leucine uptake mediated by LAT1 [5]: did not affect; effect on 14C-L-leucine uptake mediated by human LAT3 [6]: completely abolished; also recorded: inhibited |
| N=C(N)NCCC[C@H](N)C(=O)O [arginine] | did not affect | did not affect | – |
| N[C@@H](CC(=O)O)C(=O)O [aspartic acid] | did not affect | did not affect | – |
| N[C@@H](CCC(=O)O)C(=O)O [glutamic acid] | did not affect | did not affect | – |
| COc1ccc2c(c1)c(CC(=O)O)c(C)n2C(=O)c1ccc(Cl)cc1 [indomethacin] | strong inhibitory effect | – | – |
| CC(C)CN [isobutylamine] | significant inhibitory activity | – | – |
| COC(=O)[C@@H](N)CC(C)C [leucine methylester, L-leucine-methylester] | significant inhibitory activity | – | – |
| CC(C)C[C@H](N)CO [leucinol, L-leucinol] | strongly inhibited | – | – |
| NCCCC[C@H](N)C(=O)O [lysine] | did not affect | did not affect | – |
| C[C@@H]1Cc2c(Cl)cc(C(=O)N[C@@H](Cc3ccccc3)C(=O)O)c(O)c2C(=O)O1 [ochratoxin A] | strong inhibitory effect; also recorded: strongly inhibited | – | – |
| N[C@H](CO)Cc1ccccc1 [phenylalaninol, L-phenylalaninol] | relatively strong inhibitory effects; also recorded: strongly inhibited | – | – |
| NCCc1ccccc1 [phenylethylamine, 2-phenylethylamine] | significant inhibitory activity | – | – |
| CCCN(CCC)S(=O)(=O)c1ccc(C(=O)O)cc1 [probenecid] | weak but significant inhibitory effects | – | – |
| O=C(O)c1ccccc1O [salicylic acid] | weak but significant inhibitory effects | – | – |
| CC(C)[C@H](N)CO [valinol, L-valinol] | relatively strong inhibitory effects | – | – |
